Measurements: publication PMC2865582 (Journal of medicinal chemistry, 2010)

Molecular target: T1, human GVIA iPLA2 (Homo sapiens, UniProt O60733)
T1 sequence (O60733 1-806): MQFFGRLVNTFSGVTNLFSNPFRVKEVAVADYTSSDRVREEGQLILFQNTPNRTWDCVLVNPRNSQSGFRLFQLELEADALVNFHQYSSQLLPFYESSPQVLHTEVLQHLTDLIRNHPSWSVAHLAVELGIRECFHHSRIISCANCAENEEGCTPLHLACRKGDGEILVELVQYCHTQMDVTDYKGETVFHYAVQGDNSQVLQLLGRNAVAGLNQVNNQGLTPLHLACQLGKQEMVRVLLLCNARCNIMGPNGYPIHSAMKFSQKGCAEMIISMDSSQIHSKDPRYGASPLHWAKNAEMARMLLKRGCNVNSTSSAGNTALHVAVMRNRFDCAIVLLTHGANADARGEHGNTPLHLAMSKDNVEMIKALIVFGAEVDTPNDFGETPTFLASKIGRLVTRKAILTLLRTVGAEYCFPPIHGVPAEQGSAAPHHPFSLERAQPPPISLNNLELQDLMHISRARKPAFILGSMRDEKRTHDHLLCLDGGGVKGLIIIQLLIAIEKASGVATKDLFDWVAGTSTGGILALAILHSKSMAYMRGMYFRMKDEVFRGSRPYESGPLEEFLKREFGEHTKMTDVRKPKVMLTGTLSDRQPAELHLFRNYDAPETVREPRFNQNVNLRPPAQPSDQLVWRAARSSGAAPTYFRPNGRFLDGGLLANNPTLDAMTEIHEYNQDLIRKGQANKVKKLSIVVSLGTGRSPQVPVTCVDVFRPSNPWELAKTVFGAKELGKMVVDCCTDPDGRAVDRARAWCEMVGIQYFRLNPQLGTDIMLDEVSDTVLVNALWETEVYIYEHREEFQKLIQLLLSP
Test: Mixed micelle-based
Type: biochemical

[1] = XI(50) compared with inhibitor 2

| Compound | times less potent on GVIA iPLA2 than inhibitor 2 [1] | also measured |
| --- | --- | --- |
| O=C(CCCCc1ccc2ccccc2c1)C(F)(F)F [12g, 1,1,1-Trifluoro-6-(naphthalen-2-yl)hexan-2-one] | – | times higher inhibition of GVIA iPLA2 than inhibitor 2 [1]: 7 times |
| O=C(CCCOc1ccccc1)C(F)(F)C(F)(F)F [12a, 1,1,1,2,2-Pentafluoro-6-phenoxyhexan-3-one] | 2.5 times | – |
| O=C(CCCCc1ccccc1)C(F)(F)C(F)(F)F [compound 2, 1,1,1,2,2-pentafluoro-7-phenylheptan-3-one] | – | inhibition at 0.091 mole fraction (read-out: GVIA iPLA2 % Inhibition): 99.4 ± 0.1% |
| O=C(/C=C/C=C/c1ccccc1)C(F)(F)C(F)(F)F [compound 10, (4E,6E)-1,1,1,2,2-Pentafluoro-7-phenylhepta-4,6-dien-3-one] | 22 times | – |
